The results in this text go back to patent publication US8481531B2, “Bicyclic heterocyclyl derivatives as FGFR kinase inhibitors for therapeutic use” (Astex Therapeutics Ltd, priority 2009, dated 2013).

For assay [1], the target named is T1, VEGFR2 (Homo sapiens, UniProt P35968).
T1 construct: purchased Upstate
Briefly: VEGFR2 in vitro kinase inhibitory activity assay (TRF). Format: biochemical. To be noted: 0.5 μM ATP, 1 hour; read-out: VEGFR2 IC50(μM) or % I. As for the experimental part:
(§1) FGFR3, VEGFR2 and PDGFR in vitro Kinase Inhibitory Activity Assays
(§2) Enzymes (from Upstate), prepared at 2× final concentration, were incubated with test compounds, biotinylated Flt3 substrate (biotin-VASSDNEYFYVDF) (Cell Signalling Technology Inc.) and ATP in the appropriate assay buffer (Table 1). The reaction was allowed to proceed for 3 hours (FGFR3), 1 hour (VEGFR2, PDGFR-beta) at room temperature on a plate shaker at 700 rpm before being stopped with 35 mM EDTA, pH 8 (FGFR3, VEGFR2) or 55 mM EDTA, pH 8 (PDGFR-beta). 5× detection mix (50 mM HEPES pH 7.5, 0.1% BSA, 11.34 nM Eu-anti-pY (PY20) (PerkinElmer) 74 nM SA-XL665 (Cisbio) for FGFR3, 50 mM HEPES, pH 7.5, 0.1% BSA, 11.34 nM Eu-anti-pY (PY20), 187.5 nM SA-XL665 for VEGFR2 and 50 mM HEPES, pH 7.5, 0.1% BSA, 11.34 nM Eu-anti-pY (PT66) (PerkinElmer), 375 nM SA-XL665 (Cisbio) for PDGFR-beta) was then added to each well and the plate sealed and incubated at room temperature for one hour on a plate shaker at 700 rpm. The plate was then read on a Packard Fusion plate reader or a BMG Pherastar both in TRF mode.

Assay [2] deals with T2, FGFR3 (Homo sapiens, UniProt P22607).
T2 construct: purchased Upstate
T2 sequence (P22607 23-806): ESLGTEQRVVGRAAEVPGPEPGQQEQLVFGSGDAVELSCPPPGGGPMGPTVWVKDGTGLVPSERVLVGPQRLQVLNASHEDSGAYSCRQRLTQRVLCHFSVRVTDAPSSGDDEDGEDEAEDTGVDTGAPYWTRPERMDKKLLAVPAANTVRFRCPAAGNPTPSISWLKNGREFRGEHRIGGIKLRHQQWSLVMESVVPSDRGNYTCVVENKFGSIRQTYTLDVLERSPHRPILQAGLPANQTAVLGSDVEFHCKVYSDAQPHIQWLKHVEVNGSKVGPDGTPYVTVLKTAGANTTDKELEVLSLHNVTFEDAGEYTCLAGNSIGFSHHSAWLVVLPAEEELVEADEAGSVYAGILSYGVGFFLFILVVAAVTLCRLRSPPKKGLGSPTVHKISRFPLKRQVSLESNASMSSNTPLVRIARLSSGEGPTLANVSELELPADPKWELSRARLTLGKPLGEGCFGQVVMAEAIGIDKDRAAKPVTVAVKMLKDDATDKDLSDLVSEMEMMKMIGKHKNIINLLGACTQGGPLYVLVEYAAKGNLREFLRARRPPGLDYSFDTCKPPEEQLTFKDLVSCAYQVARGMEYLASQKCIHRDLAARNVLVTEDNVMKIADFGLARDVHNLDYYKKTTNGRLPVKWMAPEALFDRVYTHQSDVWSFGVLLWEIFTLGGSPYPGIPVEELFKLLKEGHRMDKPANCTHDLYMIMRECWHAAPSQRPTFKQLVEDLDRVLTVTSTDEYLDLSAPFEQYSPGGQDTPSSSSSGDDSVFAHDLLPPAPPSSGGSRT
Put plainly: FGFR3 in vitro kinase inhibitory activity assay (TRF). To be noted: 8 μM ATP, 3 hours; read-out: FGFR3 IC50(μM) or % I. Format: biochemical. How it is done:
as §1, §2

Assay [3] addresses T3, Ba/F3-TEL-FGFR3 cells (Homo sapiens, UniProt P22607).
T3 construct: fused on or other part: P41212 (Transcription factor ETV6)
Put plainly: Ba/F3-TEL-FGFR3 cell proliferation assay (Alamar Blue). Format: cell-based. Particulars: 72 hours; for GI50: read-out: BaF3-TEL-FGFR3 prolif; for BaF3-TEL-FGFR3 prolif (μM): % at 10.0 μM. How it is done: (§3) Ba/F3-TEL-FGFR3 & Ba/F3 (WT) Cell Proliferation Assays
(§4) Stably transfected Ba/F3-TEL-FGFR3 cells were plated out into black 96-well tissue culture plates with clear bottoms in RPMI medium containing 10% FBS and 0.25 mg/ml G418 at a density of 5×10^3 cells/well (200 μl per well). The parental wild-type Ba/F3 cells (DSMZ no.: ACC 300) were plated out into black 96-well tissue culture plates with clear bottoms in RPMI medium containing 10% FBS and 2 ng/ml mouse IL-3 (R&D Systems) at a density of 2.5×10^3 cells/well (200 μl per well). Plates were placed in an incubator overnight before adding the compounds the following day. Dilutions of compounds were made in DMSO starting at 10 mM and were diluted into the wells to give a final DMSO concentration of 0.1% in assay. Compounds were left on the cells for 72 hours before the plates were removed from the incubator and 20 μl of Alamar Blue™ (Biosource) was added to each well. Plates were placed in the incubator for 4-6 hours before reading plates at 535 nm (excitation)/590 nm (emission) on a Fusion plate reader (Packard). Where inhibition is high an IC50 can be determined.
Background: Resazurin is reduced to fluorescent resorufin, in cell work by metabolically active cells.

The test system of assay [4] is parental wild-type Ba/F3 cells. Briefly: Ba/F3 (WT) cell proliferation assay (Alamar Blue). Format: cell-based. Particulars: BaF3, 72 hours, read-out: BaF3 WT prolif; for IC50: with mouse IL-3. How it is done: as §3, §4

The structures appear in SMILES notation.

T3 sequence (P22607 whole entry, change not shown, the tested form may be a part): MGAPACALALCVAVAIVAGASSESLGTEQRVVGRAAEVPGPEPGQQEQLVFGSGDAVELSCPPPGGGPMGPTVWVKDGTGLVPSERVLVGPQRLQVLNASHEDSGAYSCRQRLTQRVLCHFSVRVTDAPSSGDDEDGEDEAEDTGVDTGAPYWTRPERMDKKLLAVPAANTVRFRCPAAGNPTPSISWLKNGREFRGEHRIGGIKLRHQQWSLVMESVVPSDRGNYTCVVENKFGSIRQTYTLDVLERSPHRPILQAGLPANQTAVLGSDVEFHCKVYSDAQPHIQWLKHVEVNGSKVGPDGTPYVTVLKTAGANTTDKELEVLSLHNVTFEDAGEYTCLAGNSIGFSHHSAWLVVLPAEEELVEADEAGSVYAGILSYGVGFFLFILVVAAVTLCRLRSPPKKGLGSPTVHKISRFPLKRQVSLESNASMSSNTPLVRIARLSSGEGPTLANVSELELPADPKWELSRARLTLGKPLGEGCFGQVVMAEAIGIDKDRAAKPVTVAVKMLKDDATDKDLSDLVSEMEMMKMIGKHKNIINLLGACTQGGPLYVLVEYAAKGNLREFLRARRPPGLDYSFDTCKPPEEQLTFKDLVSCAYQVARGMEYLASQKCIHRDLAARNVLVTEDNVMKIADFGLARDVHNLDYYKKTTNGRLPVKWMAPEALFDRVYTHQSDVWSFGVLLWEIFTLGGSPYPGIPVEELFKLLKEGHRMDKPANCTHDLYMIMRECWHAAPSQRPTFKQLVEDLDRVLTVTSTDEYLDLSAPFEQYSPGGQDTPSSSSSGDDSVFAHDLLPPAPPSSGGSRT
T1 sequence (P35968 20-1356): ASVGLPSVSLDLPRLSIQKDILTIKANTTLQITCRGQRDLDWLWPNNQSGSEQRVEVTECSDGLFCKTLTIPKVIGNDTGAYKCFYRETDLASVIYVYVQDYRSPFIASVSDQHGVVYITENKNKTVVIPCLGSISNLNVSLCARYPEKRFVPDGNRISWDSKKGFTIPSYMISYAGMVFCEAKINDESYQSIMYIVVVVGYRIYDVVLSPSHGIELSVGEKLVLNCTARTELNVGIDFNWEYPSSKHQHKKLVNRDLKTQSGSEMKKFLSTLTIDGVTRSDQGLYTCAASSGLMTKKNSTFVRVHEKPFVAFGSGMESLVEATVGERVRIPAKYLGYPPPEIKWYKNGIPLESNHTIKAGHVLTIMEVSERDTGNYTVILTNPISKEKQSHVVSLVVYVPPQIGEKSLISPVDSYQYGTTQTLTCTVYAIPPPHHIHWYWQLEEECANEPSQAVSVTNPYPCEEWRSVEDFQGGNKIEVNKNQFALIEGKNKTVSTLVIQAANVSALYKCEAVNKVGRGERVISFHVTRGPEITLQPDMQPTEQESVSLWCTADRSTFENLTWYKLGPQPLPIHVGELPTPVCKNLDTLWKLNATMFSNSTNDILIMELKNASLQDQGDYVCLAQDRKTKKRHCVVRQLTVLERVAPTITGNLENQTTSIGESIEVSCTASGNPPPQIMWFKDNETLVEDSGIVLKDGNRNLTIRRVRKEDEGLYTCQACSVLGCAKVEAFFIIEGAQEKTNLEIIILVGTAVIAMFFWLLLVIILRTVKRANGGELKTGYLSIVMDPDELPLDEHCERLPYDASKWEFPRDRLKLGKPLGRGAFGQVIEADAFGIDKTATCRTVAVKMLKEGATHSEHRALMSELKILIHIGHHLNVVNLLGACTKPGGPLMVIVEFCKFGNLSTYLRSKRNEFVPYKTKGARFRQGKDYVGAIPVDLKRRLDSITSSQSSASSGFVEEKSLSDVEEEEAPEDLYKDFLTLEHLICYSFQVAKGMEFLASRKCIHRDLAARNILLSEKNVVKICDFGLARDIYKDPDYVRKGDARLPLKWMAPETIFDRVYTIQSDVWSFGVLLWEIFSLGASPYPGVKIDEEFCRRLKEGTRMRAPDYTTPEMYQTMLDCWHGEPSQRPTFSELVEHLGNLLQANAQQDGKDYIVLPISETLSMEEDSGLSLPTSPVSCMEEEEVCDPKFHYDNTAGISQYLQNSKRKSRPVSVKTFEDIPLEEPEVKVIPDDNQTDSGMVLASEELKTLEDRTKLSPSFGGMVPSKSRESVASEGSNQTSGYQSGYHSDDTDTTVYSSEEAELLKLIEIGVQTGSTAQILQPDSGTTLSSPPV

With `CC(C)(C)c1nc(CON=Cc2ccn3c(-c4cccc(NC(=O)NCC(F)(F)F)c4)cnc3c2)no1` [Compound 1-14, 1-(3-{7-[(5-tert-Butyl-[1,2,4]oxadiazol-3-ylmethoxyimino)-methyl]-imidazo[1,2-a]pyridin-3-yl}-phenyl)-3-(2,2,2-trifluoro-ethyl)-urea], the values for the IC50 in assay [1] and in assay [2] were 0.68 µM and 0.027 µM, respectively. Moreover, the GI50 in assay [3] was determined as 560 nM. For the same compound, in assay [4] (Mus musculus), the inhibition at 3 µM amounted to 43%.
In the case of `O=C(NCC(F)(F)F)Nc1cccc(-c2cnc3cc(C=NOCc4ccco4)ccn23)c1` [Compound 1-15, 1-(3-{7-[(Furan-2-ylmethoxyimino)-methyl]-imidazo[1,2-a]pyridin-3-yl}-phenyl)-3-(2,2,2-trifluoro-ethyl)-urea], the IC50 amounted to 0.98 µM in assay [1], 0.026 µM in assay [2] and 4.6 µM in assay [4]. Also, the GI50 in assay [3] stood at 43 nM.
Take `Nc1nc(CON=Cc2ccn3c(-c4cccc(NC(=O)NCC(F)(F)F)c4)cnc3c2)cs1` [Compound 1-16, 1-(3-{7-[(2-Amino-thiazol-4-ylmethoxyimino)-methyl]-imidazo[1,2-a]pyridin-3-yl}-phenyl)-3-(2,2,2-trifluoro-ethyl)-urea]: the IC50 in assay [1] was determined as 0.61 µM; in assay [2], 0.018 µM. The GI50 in assay [3] was found to be 1300 nM. Also, in assay [4] (Mus musculus), the inhibition at 10 µM stood at 19%.
Take `Cc1cc(CON=Cc2ccn3c(-c4cccc(NC(=O)NCC(F)(F)F)c4)cnc3c2)no1` [Compound 1-17, 1-(3-{7-[(5-Methyl-isoxazol-3-ylmethoxyimino)-methyl]-imidazo[1,2-a]pyridin-3-yl}-phenyl)-3-(2,2,2-trifluoro-ethyl)-urea]: the IC50 in assay [1] stood at 0.66 µM; in assay [2], 0.013 µM; in assay [4] it was 4.1 µM. Also, the GI50 in assay [3] is 230 nM.
For `O=C(NCC(F)(F)F)Nc1cccc(-c2cnc3cc(/C=N/OCCCO)ccn23)c1` [Compound 1-18, 1-(3-{7-[(3-Hydroxy-propoxyimino)-methyl]-imidazo[1,2-a]pyridin-3-yl}-phenyl)-3-(2,2,2-trifluoro-ethyl)-urea], the IC50 was 0.4 µM in assay [1], 0.019 µM in assay [2] and 4.7 µM in assay [4]. Further, in assay [3], the GI50 came out at 240 nM.
For `N=C(N)Nc1nc(CON=Cc2ccn3c(-c4cccc(NC(=O)NCC(F)(F)F)c4)cnc3c2)cs1` [Compound 1-19, 1-(3-{7-[(2-Guanidino-thiazol-4-ylmethoxyimino)-methyl]-imidazo[1,2-a]pyridin-3-yl}-phenyl)-3-(2,2,2-trifluoro-ethyl)-urea], in that order: 0.67 µM, 0.023 µM, 5.2 µM and 2400 nM.
Take `C/C(=N\O)c1ccn2c(-c3cccc(NC(=O)NCC(F)(F)F)c3)cnc2c1` [Compound 1-21, 1-[3-(7-{1-Hydroxyimino-ethyl}-imidazo[1,2-a]pyridin-3-yl)-phenyl]-3-(2,2,2-trifluoro-ethyl)-urea]: the IC50 was 0.03 µM in assay [1] and 0.0019 µM in assay [2]. Further, in assay [3], the GI50 was 46 nM. Besides, the inhibition at 10 µM in assay [4] (Mus musculus) amounted to 17%.
Turning to `CON=C(c1ccn2c(-c3cccc(NC(=O)NCC(F)(F)F)c3)cnc2c1)C1CC1` [Compound 1-24, 1-[3-(7-{Cyclopropyl-methoxyimino-methyl}-imidazo[1,2-a]pyridin-3-yl)-phenyl]-3-(2,2,2-trifluoro-ethyl)-urea], the IC50 in assay [1] is 0.23 µM; in assay [2] it was 0.015 µM. Further, the GI50 in assay [3] was determined as 260 nM. Further, the inhibition at 1 µM in assay [4] (Mus musculus, % at 1.00 μM) was found to be 38%.
Take `CCC(=NOC)c1ccn2c(-c3cccc(NC(=O)NCC(F)(F)F)c3)cnc2c1` [Compound 1-25, 1-[3-(7-{1-Methoxyimino-propyl}-imidazo[1,2-a]pyridin-3-yl)-phenyl]-3-(2,2,2-trifluoro-ethyl)-urea]: the IC50 in assay [1] is 0.24 µM; in assay [2] it was 0.011 µM. Besides, the GI50 in assay [3] turned out to be 320 nM. Also, the inhibition at 3 µM in assay [4] (Mus musculus) is 46%.
For `CCC(=NO)c1ccn2c(-c3cccc(NC(=O)NCC(F)(F)F)c3)cnc2c1` [Compound 1-26, 1-[3-(7-{1-Hydroxyimino-propyl}-imidazo[1,2-a]pyridin-3-yl)-phenyl]-3-(2,2,2-trifluoro-ethyl)-urea], the IC50 in assay [1] came to 0.083 µM; in assay [2], 0.0045 µM. Also, the GI50 in assay [3] was found to be 120 nM. Also, the inhibition at 10 µM in assay [4] (Mus musculus) was 40%.
Take `CON=C(c1ccn2c(-c3cccc(NC(=O)NCC(F)(F)F)c3)cnc2c1)C1CCC1` [Compound 1-27, 1-[3-(7-{Cyclobutyl-methoxyimino-methyl}-imidazo[1,2-a]pyridin-3-yl)-phenyl]-3-(2,2,2-trifluoro-ethyl)-urea]: the IC50 in assay [1] was 1.2 µM; in assay [2], 0.08 µM; in assay [4], 1.5 µM. Moreover, the GI50 in assay [3] came to 1300 nM.
Take `O=C(NCC(F)(F)F)Nc1cccc(-c2cnc3cc(C(=NO)C4CCC4)ccn23)c1` [Compound 1-28, 1-[3-(7-{Cyclobutyl-hydroxyimino-methyl}-imidazo[1,2-a]pyridin-3-yl)-phenyl]-3-(2,2,2-trifluoro-ethyl)-urea]: the results for the IC50 in assay [1] and in assay [2] were 0.33 µM and 0.022 µM, respectively. For the same compound, the GI50 in assay [3] amounted to 570 nM. The inhibition at 3 µM in assay [4] (Mus musculus) was 43%.
Consider `CON=C(CC1CC1)c1ccn2c(-c3cccc(NC(=O)NCC(F)(F)F)c3)cnc2c1` [Compound 1-29, 1-[3-(7-{2-Cyclopropyl-1-methoxyimino-ethyl}-imidazo[1,2-a]pyridin-3-yl)-phenyl]-3-(2,2,2-trifluoro-ethyl)-urea], for which the figures for the IC50 in assay [1] and in assay [2] were above 1 µM and 0.059 µM, respectively. The “BaF3-TEL-FGFR3 prolif (μM)” value in assay [3] is given as 28.0% at. The inhibition at 10 µM in assay [4] (Mus musculus) worked out at 16%.
For `O=C(NCC(F)(F)F)Nc1cccc(-c2cnc3cc(C(CC4CC4)=NO)ccn23)c1` [Compound 1-30, 1-[3-(7-{2-Cyclopropyl-1-hydroxyimino-ethyl}-imidazo[1,2-a]pyridin-3-yl)-phenyl]-3-(2,2,2-trifluoro-ethyl)-urea], in that order: 0.29 µM, 0.019 µM, 43.0% at and 20%.
Take `CC(C)Oc1cc(NC(=O)NCC(F)(F)F)cc(-c2cnc3cc(/C(=N/O)C4CC4)ccn23)c1` [Compound 1-31, 1-[3-(7-{Cyclopropyl-hydroxyimino-methyl}-imidazo[1,2-a]pyridin-3-yl)-5-isopropoxy-phenyl]-3-(2,2,2-trifluoro-ethyl)-urea]: the IC50 in assay [1] worked out at 1.34 µM; in assay [2], 0.023 µM; in assay [4], 6.2 µM. Moreover, the GI50 in assay [3] stood at 470 nM.
`O=C(NCC(F)(F)F)Nc1cccc(-c2cnc3cc(/C(=N/OCCO)C4CC4)ccn23)c1` [Compound 1-32, 1-[3-(7-{Cyclopropyl-[2-hydroxy-ethoxyimino]-methyl}-imidazo[1,2-a]pyridin-3-yl)-phenyl]-3-(2,2,2-trifluoro-ethyl)-urea]: the figures for the IC50 in assay [1] and in assay [2] were 0.96 µM and 0.072 µM, respectively. Besides, the GI50 in assay [3] is 1100 nM. For the same compound, the inhibition at 10 µM in assay [4] (Mus musculus) was 50%.
With `O=C(NCC(F)(F)F)Nc1cccc(-c2cnc3cc(/C(=N\OCCO)C4CC4)ccn23)c1` [Compound 1-33, 1-[3-(7-{Cyclopropyl-[2-hydroxy-ethoxyimino]-methyl}-imidazo[1,2-a]pyridin-3-yl)-phenyl]-3-(2,2,2-trifluoro-ethyl)-urea], the IC50 in assay [1] worked out at 0.18 µM; in assay [2] it was 0.018 µM; in assay [4] it was 11 µM. For the same compound, the GI50 in assay [3] amounted to 250 nM.
